The text below walks through data of ChEMBL document CHEMBL5500402, “Potent, Selective Agonists for the Cannabinoid-like Orphan G Protein-Coupled Receptor GPR18: A Promising Drug Target for Cancer and Immunity” (J Med Chem, 2024).

The target in one assay is Cannabinoid receptor 1 (Homo sapiens, UniProt P21554). The assay is described as follows: Displacement of [3H]-CP55940 from human CB1 receptor expressed in CHO cells assessed as inhibition constant by radioligand competition binding assay. The format is cell-based. The conditions noted are these: read-out: Ki. A general note: Displacement assays read how much labelled ligand stays bound in the presence of the test substance.
Chain of Cannabinoid receptor 1 (P21554 whole entry): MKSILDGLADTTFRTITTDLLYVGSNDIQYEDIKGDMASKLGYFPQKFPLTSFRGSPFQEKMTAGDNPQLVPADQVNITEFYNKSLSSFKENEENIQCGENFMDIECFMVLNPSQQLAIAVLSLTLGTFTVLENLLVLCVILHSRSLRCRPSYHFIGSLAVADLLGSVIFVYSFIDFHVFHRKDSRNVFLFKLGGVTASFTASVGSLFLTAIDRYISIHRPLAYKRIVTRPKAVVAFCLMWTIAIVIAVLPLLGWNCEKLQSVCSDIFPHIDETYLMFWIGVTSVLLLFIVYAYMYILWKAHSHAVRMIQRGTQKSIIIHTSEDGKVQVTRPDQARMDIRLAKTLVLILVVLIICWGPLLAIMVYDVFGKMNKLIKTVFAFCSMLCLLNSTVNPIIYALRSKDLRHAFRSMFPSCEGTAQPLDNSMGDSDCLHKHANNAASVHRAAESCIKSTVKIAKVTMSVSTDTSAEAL

The target in assay [1] is T1, N-arachidonyl glycine receptor (Mus musculus, UniProt Q8K1Z6).
T1 sequence (Q8K1Z6 whole entry): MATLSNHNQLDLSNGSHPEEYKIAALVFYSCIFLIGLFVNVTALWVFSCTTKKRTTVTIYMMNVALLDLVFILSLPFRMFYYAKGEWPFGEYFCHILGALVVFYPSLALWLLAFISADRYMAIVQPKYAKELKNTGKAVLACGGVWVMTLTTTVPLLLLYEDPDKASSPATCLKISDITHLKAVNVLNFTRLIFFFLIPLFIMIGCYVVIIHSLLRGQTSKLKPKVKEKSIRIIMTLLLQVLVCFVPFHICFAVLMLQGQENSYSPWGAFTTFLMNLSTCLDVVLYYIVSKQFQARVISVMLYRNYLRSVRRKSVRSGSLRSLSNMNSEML
Description: Agonist activity at mouse GPR18 expressed in CHO cells assessed as activation by measuring beta-arrestin2 recruitment incubated for 90 mins by luminescence based assay

In another assay the target is Cannabinoid receptor 2 (Homo sapiens, UniProt P34972). The assay is described as follows: Displacement of [3H]-CP55940 from human CB2 receptor expressed in CHO cells assessed as inhibition constant by radioligand competition binding assay. The format is cell-based.
Chain of Cannabinoid receptor 2 (P34972 whole entry): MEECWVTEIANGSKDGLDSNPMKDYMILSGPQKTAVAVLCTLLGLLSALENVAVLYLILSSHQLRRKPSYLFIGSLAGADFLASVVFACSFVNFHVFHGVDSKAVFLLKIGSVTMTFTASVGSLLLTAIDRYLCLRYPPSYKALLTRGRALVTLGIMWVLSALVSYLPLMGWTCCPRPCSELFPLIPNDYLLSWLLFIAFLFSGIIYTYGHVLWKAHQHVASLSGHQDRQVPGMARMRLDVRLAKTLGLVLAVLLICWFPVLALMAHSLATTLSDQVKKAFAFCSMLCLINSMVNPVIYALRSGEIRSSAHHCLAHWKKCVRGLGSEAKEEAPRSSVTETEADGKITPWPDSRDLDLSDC
Assay [2] has as its target T2, N-arachidonyl glycine receptor (Homo sapiens, UniProt Q14330).
T2 sequence (Q14330 whole entry): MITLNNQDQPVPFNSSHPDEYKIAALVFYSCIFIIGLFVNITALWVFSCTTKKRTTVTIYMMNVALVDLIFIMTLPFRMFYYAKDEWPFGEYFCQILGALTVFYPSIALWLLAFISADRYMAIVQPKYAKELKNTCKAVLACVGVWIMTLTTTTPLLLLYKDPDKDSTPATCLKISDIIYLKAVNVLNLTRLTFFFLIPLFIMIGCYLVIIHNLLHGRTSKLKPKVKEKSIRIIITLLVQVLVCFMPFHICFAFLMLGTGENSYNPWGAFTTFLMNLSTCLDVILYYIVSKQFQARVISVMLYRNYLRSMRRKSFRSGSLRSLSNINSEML
The assay is described as follows: Agonist activity at human GPR18-eYFP and Renilla luc expressed in CHO cells assessed as beta-arrestin2 recruitment by BRET/beta-arrestin2 enzyme complementation assay. (Recruitment of arrestin is a read-out of receptor activation apart from second messengers.)

Assay [3] has as its target T2, N-arachidonyl glycine receptor. Briefly: Agonist activity at human GPR18 expressed in CHO cells assessed as activation by measuring beta-arrestin2 recruitment incubated for 90 mins by luminescence based assay. The assay is classed as functional, cell-based.
Assay [4] deals with T3, G-protein coupled receptor 55 (Homo sapiens, UniProt Q9Y2T6). The assay is described as follows: Agonist activity at human GPR55 expressed in CHO-K1 cells by beta-arrestin2 recruitment assay.
T3 sequence (Q9Y2T6 whole entry): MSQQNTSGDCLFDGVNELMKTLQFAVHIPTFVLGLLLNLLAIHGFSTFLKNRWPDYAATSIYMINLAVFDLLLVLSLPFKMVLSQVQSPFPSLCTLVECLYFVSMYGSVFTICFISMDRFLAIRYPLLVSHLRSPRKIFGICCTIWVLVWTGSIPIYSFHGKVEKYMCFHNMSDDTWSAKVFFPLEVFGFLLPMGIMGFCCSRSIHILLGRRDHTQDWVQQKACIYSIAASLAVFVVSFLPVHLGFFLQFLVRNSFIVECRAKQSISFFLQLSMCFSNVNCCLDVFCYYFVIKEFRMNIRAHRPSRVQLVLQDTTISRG
Assay [5] has as its target T3, G-protein coupled receptor 55. The assay is described as follows: Antagonist activity at human GPR55 expressed in CHO-K1 cells assessed as inhibition of beta-arrestin2 recruitment.
The target in assay [6] is T2, N-arachidonyl glycine receptor.
The target is the same in assay [7]. The assay is described as follows: Antagonist activity at human GPR18 receptor expressed in CHO cells assessed as inhibition of THC-induced activation by measuring beta-arrestin2 recruitment.
Assay [8] addresses G-protein coupled receptor 183 (Homo sapiens, UniProt P32249). The assay is described as follows: Agonist activity at human GPR183 expressed in PathHunter CHO-K1 cells assessed as activation by measuring beta-arrestin2 recruitment.

Chain of G-protein coupled receptor 183 (P32249 whole entry): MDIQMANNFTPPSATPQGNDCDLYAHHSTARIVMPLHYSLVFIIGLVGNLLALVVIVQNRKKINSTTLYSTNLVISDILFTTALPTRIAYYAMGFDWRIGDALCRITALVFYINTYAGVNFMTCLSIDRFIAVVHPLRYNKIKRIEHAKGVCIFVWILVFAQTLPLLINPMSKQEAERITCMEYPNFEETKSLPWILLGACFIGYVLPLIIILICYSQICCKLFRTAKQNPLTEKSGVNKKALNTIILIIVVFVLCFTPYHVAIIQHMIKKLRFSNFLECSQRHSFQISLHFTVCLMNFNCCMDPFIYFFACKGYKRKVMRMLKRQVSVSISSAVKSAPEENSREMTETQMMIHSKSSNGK

Regarding `Cn1c(=O)c2c(nc(NCCc3c[nH]c4ccccc34)n2Cc2ccc(Cl)cc2)n(C)c1=O`, the inhibitory constant (Ki) (usually a dissociation constant, usually derived from enzyme kinetics or from competition with a known ligand) at Cannabinoid receptor 1 stood at 1180 nM; on Cannabinoid receptor 2, 481 nM. For the same compound, the concentration for a half-maximal effect (EC50) (in general, the concentration that produces a half-maximal response) in assay [1] is 54 nM; in [2], 38 nM; in [3] it was 19 nM; in assay [4], > 10 µM. Moreover, the IC50 (usually the concentration at which inhibition is half-maximal) in assay [5] is > 10 µM.

With `O=C1/C(=C/c2cccc(OCCCCCCOc3ccc(Cl)cc3)c2)N=C2SCCCN12`, the IC50 in assay [6] is 9.91 µM; in assay [7], 487 nM.

With `CCCCCc1cc(O)c2c(c1)OC(C)(C)[C@@H]1CCC(C)=C[C@@H]21` [DRONABINOL], the concentration for a half-maximal effect (EC50) in [1] was > 10000 nM; in [3], 3370 nM; in assay [8], 38 nM.
